{"source": "patent US20100120679A1", "about": "“Targeting NBS1-ATM Interaction To Sensitize Cancer Cells To Radiotherapy And Chemotherapy” (SOUTHERN RESEARCH INSTITUTE, priority 2006, published 2010)", "key": {"[1]": {"test_system": "NBS1 phosphorylation on serine 343 in HeLa cells", "assay": "IR-induced NBS1 pSer343 focus formation, HeLa", "format": "cell-based, human", "excerpt": "(§1) Error bars represent +/−1 SD, graphed are the mean of three independent experiments.\nTo further support the idea that wtNIP can inhibit ATM-mediated DNA damage pathways, IR-induced NBS1 focus formation, an event considered to be an ATM-dependent process at the sites of DSBs (Lim et al., 2000) was investigated. NBS1 foci are a result of ATM-mediated NBS1 phosphorylation on serine 343. […] The average number of foci in mock-irradiated HeLa cells was 6, 8, and 6 for R9, wtNIP, and scNIP, respectively."}, "HeLa cells [2]": {"test_system": "HeLa cells", "assay": "Length of time the peptides remain in cells (degradation, immunofluorescence)", "protocol": "HeLa cells were treated with 10 μM R9, wtNIP, or scNIP for one hour and harvested at indicated time points before they were analyzed by immunofluorescence microscopy staining with an […].\nImmunofluorescence microscopy: Exponentially growing cultures of cells were plated on sterile, […] coverslips, and incubated for 24 hours at 37° C. in 5% CO2 humidified air before they are treated with the NIP peptides at room temperature. Coverslips were washed with PBS and fixed with 4% paraformaldehyde-0.25% Triton X-100 for 15 minutes at room temperature, blocked for 30 minutes at room temperature, and incubated with FITC-conjugated streptavidin or anti-γH2AX and phospho-NBS1 antibodies (Rockland Immunochemicals, Gilbertsville, Pa.) for 1 hour at room temperature. Coverslips were then mounted with Vectashield Elite (Vector Labs, Burlingame, Calif.) and observed with a Leica fluorescence microscope. Images were captured at 40× magnification using a Q Imaging Retiga Exi digital camera and analyzed with Image Pro-Plus 5.1 software.\nBecause the peptides would be used in radiation studies, the length of time the peptides remain in cells was determined to ensure that the peptides would be present throughout the DNA repair process after IR."}, "NBS1-ATM interaction": {"target": "T1, NBS1-ATM interaction (Homo sapiens, UniProt Q13315)", "T1 construct": "endogenous in cells; host or cells: HeLa", "assay": "Co-immunoprecipitation of ATM with NBS1 in peptide-treated cells", "format": "cell-based", "settings": "HeLa cells, four hours after peptide treatment, unirradiated", "protocol": "HeLa cells treated with the NIP peptides were irradiated (0 or 6Gy). Immunoprecipitation was performed with a rabbit NBS1 antibody, and Western blotting was performed with monoclonal antibodies against ATM, NBS1 or MRE11.\nImmunoprecipitation and Western blotting: For co-immunoprecipitation of ATM, NBS1 and MRE11, cells were lysed 1 hour in ice-cold lysis buffer, which consisted of 10 mM Tris-HCl (pH 7.5), 100 mM NaCl, 5 mM EDTA, 0.5% NP-40, 5 mM Na3VO4, 1 mM NaF, and 1 mM PMSF. After centrifugation, supernatants were incubated with indicated antibodies. After extensive washing with the lysis buffer, immunoprecipitates were analyzed by immunoblot using specific antibodies. For western blotting analysis, samples (cell lysates or immunoprecipitates) were separated on 4-12% SDS-poly-acrylamide gels, transferred to nitrocellulose membranes, and probed with various antibodies.\nwtNIP Abrogated the NBS1-ATM Interaction: To investigate whether R9-conjugated NIP peptides could inhibit NBS1-ATM interactions, coimmunoprecipitation experiments were performed in cells treated with the NIP peptides. Four hours after peptide treatment, HeLa cells were harvested and subjected to immunoprecipitation using an anti-NBS1 antibody. The immunoprecipitates were then blotted with anti-ATM, NBS1, and MRE11 antibodies."}, "[3]": {"test_system": "γ-H2AX foci in HeLa cells", "assay": "IR-induced γ-H2AX focus formation, HeLa", "format": "cell-based, human", "settings": "10 μM peptide, 30 minutes after 6Gy IR", "excerpt": "as §1\n(§2) wtNIP Inhibits IR-Induced γ-H2AX and NBS1 pSer343 Focus Formation: One of the earliest responses to IR-induced DNA damage is the formation of γ-H2AX foci, which requires functional ATM (Burma et al., 2001; Furuta et al., 2003). […] Immunofluorescence microscopy was used to detect the presence of γ-H2AX foci in mock-irradiated or irradiated cells in the presence of R9, wtNIP or scNIP. […] Therefore, IR-induced γ-H2AX focus formation can be inhibited by wt-NIP."}, "HeLa cells [4]": {"test_system": "HeLa cells", "assay": "Colony formation assay (radiosensitivity), HeLa", "protocol": "Shown in A (HeLa), C (MO59J) and D (GM9607) are the susvival curves after indicated doses of radiation. Error bars represent +/−1 SEM, graphed are the mean of three independent experiments.\nColony formation assays: To determine the radiosensitivity, the colony forming assay was incorporated. Cells were harvested with 0.125% trypsin-0.05% EDTA, pelleted and re-suspended in 1 ml fresh media with a 22 g needle to disperse clumps prior to hemocytometer counting in trypan blue. Cells were then plated at limiting dilutions in […] and allowed to adhere overnight. Cultures were treated with PBS, R9, wtNIP, or scNIP for 1 hour, and irradiated (0-6Gy). Fresh peptides were added every four hours until 24 hours after IR, when the medium was replaced with peptide-free medium. Cultures were incubated for 10-12 days, harvested and stained with 0.5% crystal violet in methanol. Colony number was determined with a dissecting microscope. A population of >50 cells was counted as one colony, and the number of colonies was expressed as a percentage of the value for untreated mock irradiated control cells. The surviving curves were plotted by linear regression analyses and the D0 value represents the radiation dose that leads to 37% of survival. To determine the radiosensitizing potential of the peptides in comparison to other small molecule inhibitors, the sensitizing enhancement ratio (SER) was calculated based on the dose of radiation required to reduce survival to 37% in the presence of scNIP or wtNIP. The following formula was used: […]\nStatistics: To establish statistical significance, Student's t-test was incorporated. The data were first fit to each experimental group over a dose range of 0-6Gy. Significant differences were established at p<0.05.\nFIG. 6A depicts the survival curves for HeLa cells treated with R9, wtNIP, or scNIP over a dose range of 0 to 6 Gy."}, "[5]": {"test_system": "γ-H2AX foci in DU-145 cells", "assay": "IR-induced γ-H2AX focus formation, DU-145", "format": "cell-based, human", "settings": "10 μM peptide, 6Gy", "excerpt": "as §1, §2"}, "HeLa cells [6]": {"test_system": "HeLa cells", "assay": "Peptide internalization by immunofluorescence microscopy (fluorescein-conjugated streptavidin)", "format": "cell-based, human", "settings": "10 μM for 1 h", "protocol": "First, the internalization of the peptides was evaluated. Cells treated with the peptide were probed with a fluorescein-conjugated streptavidin antibody to determine the presence of the biotinylated peptides."}, "Hela cells [7]": {"test_system": "Hela cells", "settings": "cited from earlier work"}, "ATM": {"target": "ATM (human, UniProt Q13315 2-3056)", "sequence (Q13315 other isoform, or with tags, fused parts or gaps limits assumed)": "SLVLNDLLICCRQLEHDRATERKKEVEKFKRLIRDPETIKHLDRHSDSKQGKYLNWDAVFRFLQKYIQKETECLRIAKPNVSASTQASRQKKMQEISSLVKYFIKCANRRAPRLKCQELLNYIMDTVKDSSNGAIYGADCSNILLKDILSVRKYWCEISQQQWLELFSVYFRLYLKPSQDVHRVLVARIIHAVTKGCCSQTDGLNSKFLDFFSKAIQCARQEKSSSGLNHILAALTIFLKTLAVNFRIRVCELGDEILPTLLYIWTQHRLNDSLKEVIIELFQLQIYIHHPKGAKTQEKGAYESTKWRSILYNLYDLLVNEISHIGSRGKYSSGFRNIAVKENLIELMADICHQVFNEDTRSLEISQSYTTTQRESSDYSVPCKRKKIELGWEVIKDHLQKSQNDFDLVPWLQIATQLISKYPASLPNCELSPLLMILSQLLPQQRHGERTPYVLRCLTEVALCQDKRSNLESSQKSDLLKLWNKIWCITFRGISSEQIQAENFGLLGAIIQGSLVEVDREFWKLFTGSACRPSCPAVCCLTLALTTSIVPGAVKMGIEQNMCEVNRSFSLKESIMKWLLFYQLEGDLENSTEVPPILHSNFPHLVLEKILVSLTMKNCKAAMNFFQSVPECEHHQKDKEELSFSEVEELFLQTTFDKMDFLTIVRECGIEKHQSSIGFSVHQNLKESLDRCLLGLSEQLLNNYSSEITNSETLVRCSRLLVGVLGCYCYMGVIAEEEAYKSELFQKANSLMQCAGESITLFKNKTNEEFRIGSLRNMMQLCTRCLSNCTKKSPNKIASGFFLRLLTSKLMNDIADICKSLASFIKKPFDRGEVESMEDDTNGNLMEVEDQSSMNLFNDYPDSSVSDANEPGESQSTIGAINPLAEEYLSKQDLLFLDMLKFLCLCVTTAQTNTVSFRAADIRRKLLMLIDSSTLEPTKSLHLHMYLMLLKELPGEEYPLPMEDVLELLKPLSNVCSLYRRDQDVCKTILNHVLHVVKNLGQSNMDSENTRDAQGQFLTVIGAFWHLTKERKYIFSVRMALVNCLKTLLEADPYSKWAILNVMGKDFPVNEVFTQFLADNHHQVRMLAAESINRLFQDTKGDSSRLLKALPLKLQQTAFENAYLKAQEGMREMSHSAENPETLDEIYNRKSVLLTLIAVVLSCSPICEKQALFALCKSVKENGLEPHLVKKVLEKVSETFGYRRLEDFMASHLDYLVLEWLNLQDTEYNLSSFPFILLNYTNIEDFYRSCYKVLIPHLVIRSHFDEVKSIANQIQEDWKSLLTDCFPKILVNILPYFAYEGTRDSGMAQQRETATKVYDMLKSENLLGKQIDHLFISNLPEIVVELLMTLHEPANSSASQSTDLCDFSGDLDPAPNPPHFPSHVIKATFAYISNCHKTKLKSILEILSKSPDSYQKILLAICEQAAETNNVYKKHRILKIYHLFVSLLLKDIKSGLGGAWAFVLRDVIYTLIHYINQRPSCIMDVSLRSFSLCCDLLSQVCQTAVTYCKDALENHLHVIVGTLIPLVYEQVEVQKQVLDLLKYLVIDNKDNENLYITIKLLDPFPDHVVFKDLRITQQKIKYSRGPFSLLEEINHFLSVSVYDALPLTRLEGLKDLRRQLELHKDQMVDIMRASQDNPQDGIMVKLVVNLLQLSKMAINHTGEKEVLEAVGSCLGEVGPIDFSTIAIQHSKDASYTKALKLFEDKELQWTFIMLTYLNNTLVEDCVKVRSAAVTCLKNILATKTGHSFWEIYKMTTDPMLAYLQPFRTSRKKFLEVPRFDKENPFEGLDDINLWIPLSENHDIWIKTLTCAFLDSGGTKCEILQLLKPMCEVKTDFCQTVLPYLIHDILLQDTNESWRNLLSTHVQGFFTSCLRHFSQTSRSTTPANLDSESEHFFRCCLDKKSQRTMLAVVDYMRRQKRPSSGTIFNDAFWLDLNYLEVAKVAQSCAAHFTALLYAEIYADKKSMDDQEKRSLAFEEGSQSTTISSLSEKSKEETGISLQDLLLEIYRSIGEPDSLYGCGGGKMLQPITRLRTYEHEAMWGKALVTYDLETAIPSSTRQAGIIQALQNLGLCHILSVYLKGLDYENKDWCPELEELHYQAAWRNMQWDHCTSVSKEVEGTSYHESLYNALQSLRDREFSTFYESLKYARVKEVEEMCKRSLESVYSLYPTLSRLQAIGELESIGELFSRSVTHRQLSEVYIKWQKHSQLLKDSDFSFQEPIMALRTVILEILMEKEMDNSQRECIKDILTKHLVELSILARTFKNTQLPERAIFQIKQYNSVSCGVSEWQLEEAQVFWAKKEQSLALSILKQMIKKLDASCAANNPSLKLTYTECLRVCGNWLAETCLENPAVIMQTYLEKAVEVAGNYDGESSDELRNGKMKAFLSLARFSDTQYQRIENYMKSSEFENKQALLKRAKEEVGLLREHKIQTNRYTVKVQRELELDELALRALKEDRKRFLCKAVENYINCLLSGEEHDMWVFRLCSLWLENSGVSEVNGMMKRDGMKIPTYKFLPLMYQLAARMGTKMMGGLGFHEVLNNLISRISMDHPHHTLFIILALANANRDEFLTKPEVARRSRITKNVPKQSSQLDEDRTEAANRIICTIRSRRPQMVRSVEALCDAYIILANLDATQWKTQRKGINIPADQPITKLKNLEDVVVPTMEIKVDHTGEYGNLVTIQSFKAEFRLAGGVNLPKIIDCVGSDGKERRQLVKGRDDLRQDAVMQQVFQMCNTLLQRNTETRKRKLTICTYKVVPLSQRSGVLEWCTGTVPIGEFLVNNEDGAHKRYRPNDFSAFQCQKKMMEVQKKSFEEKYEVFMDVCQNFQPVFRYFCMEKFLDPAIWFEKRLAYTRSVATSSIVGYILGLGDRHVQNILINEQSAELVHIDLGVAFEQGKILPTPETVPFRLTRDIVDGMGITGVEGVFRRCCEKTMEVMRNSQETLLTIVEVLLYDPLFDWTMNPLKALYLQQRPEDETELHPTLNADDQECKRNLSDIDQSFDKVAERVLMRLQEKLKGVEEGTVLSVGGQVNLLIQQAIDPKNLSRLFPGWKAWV", "assay": "cell-based or functional assay"}}, "note": "Ends that are not written are not given here. Peptide text beside a SMILES is read from it. * marks the point of attachment. Biotin = O=C1N[C@H]2[C@H](CS[C@H]2CCCCC(=O)*)N1"}
{"molecule": "CC(C)C[C@H](NC(=O)[C@H](CCC(=O)O)NC(=O)[C@H](CCC(=O)O)NC(=O)[C@H](CC(C)C)NC(=O)[C@H](CC(=O)O)NC(=O)[C@H](C)NC(=O)[C@H](CC(=O)O)NC(=O)[C@H](CO)NC(=O)[C@H](CCCNC(=N)N)NC(=O)[C@H](CCCNC(=N)N)NC(=O)[C@H](CCCNC(=N)N)NC(=O)[C@H](CCCNC(=N)N)NC(=O)[C@H](CCCNC(=N)N)NC(=O)[C@H](CCCNC(=N)N)NC(=O)[C@H](CCCNC(=N)N)NC(=O)[C@H](CCCNC(=N)N)NC(=O)[C@H](CCCNC(=N)N)NC(=O)CCCC[C@@H]1SC[C@@H]2NC(=O)N[C@@H]21)C(=O)N[C@@H](CCCCN)C(=O)O", "note": "[scNIP] (Biotin-RRRRRRRRRSDADLEELK-OH)", "values": [{"measurement": "NBS1 pSer343 foci per nucleus", "setting": "[1]; HeLa cells after treatment with 6-Gy IR", "value": 31, "unit": "foci per nucleus"}, {"measurement": "average number of NBS1 pSer343 foci", "setting": "[1]; mock-irradiated HeLa cells", "value": 6}, {"measurement": "fluorescent intensity levels of peptide in cells", "setting": "HeLa cells [2]; 8 hours", "value": "much weaker"}, {"measurement": "peptide staining in cells", "setting": "HeLa cells [2]; 12 hours", "value": "much weaker cytoplasmic staining with no observed nuclear staining"}, {"measurement": "peptide staining in cells", "setting": "HeLa cells [2]; 24 hours", "value": "no detectable presence of the peptides"}, {"measurement": "presence of peptides in cells", "setting": "HeLa cells [2]; within 2 hours of treatment", "value": "strong distribution"}, {"measurement": "fluorescent intensity levels of peptide in cells", "setting": "HeLa cells [2]; within 4 hours", "value": "began to decrease"}, {"measurement": "ATM-NBS1 association (anti-NBS1 immunoprecipitation, anti-ATM blot)", "setting": "NBS1-ATM interaction", "value": "did not affect the NBS1-ATM interaction"}, {"measurement": "average number of γ-H2AX foci/nucleus", "setting": "[3]", "value": 41, "unit": "foci/nucleus"}, {"measurement": "D0 (mean lethal dose required for 37% survival)", "setting": "HeLa cells [4]", "value": 3.0}, {"measurement": "effect of peptide on clonogenic survival", "setting": "HeLa cells [4]; 10 μM peptide", "value": "no significant difference between treatment groups"}, {"measurement": "effect on radiosensitivity / IR-induced survival", "setting": "HeLa cells [4]; dose range 0 to 6 Gy", "value": "Neither R9 nor scNIP affects radiosensitivity"}, {"measurement": "IR-induced γ-H2AX focus formation", "setting": "[5]", "value": "did not affect IR-induced focus formation"}, {"measurement": "cellular uptake of peptide", "setting": "HeLa cells [6]", "value": "significant cellular uptake of peptide"}, {"measurement": "localization of internalized peptide", "setting": "HeLa cells [6]", "value": "cytoplasmic and nuclear compartments"}]}
{"molecule": "O=c1cc(-c2cccc3c2Sc2ccccc2S3)oc(N2CCOCC2)c1", "note": "[KU55933]", "values": [{"measurement": "radiosensitivity", "setting": "Hela cells [7]; Hela cells", "value": "significant increase in radiosensitivity"}, {"measurement": "increase in sensitivity to etoposide", "setting": "Hela cells [7]", "value": "≤ 35.5", "unit": "fold"}]}
{"molecule": "Biotin-RRRRRRRRRKEESLADDLF", "note": "[wild-type NBS1 inhibitory peptide (wtNIP)]", "values": [{"measurement": "SER (sensitizing enhancement ratio), DU-145", "setting": "ATM", "value": 1.46}, {"measurement": "SER (sensitizing enhancement ratio), HeLa", "setting": "ATM", "value": 1.58}, {"measurement": "SER (sensitizing enhancement ratio), M059J cells (defective DNA-PKcs)", "setting": "ATM", "value": 1.83}, {"measurement": "sensitizer enhancement ratio at 2Gy, HeLa", "setting": "ATM", "value": 1.66}, {"measurement": "sensitizer enhancement ratio at 4Gy, HeLa", "setting": "ATM", "value": 2.61}, {"measurement": "sensitizer enhancement ratio at 6Gy, HeLa", "setting": "ATM", "value": 3.12}]}
